Patent publication US9796707B2, “Piperazine derivatives for treating disorders” (The University of Nottingham, priority 2014, dated 2017)

Key:
[1] = format: cell-based
Description: To test whether compounds of Formula (I) are safe to administer to patients we began a basic safety test of these compounds in vitro.

[2] = tested on: choroidal neovascularisation; conditions: mouse CNV, eye drops, previously shown; cited from earlier work
[3] = Scleral permeability, modified Ussing chamber; format: in vitro ADME; conditions: rabbit
Protocol: Scleral permeability was measured using a modified Ussing chamber assembly in isotonic assay buffer (pH 7.4). Rabbit or porcine excised eye tissues were mounted in the chambers such that the episcleral side faced the donor chamber and the retinal side faced the receiver chamber. The chambers were filled with equal volumes of assay buffer, with (donor side) or without (receiver side) 1 μg/ml compound. After 4 or 24 hours tissue was removed from the chamber and the receiver side (“vitreous”) sampled. Tissue was dissected into sclera, choroid/RPE, and retina and homogenised.
After 0, 4 or 24 hours, the fluid from the bottom chamber (vitreous) and the retinal tissue was isolated and compounds purified by acetonitrile extraction and HPLC.

[4] = Solubility in water
[5] = tested on: SRSF1 nuclear localisation in PC3 prostate cancer cells; assay: SRSF1 localisation by immunofluorescence
[6] = mouse, in vivo
Protocol: Mice were treated for six days with 2 μg per eye SPHINX31 as eye drops, and ERG carried out using a Micron IV Ganzfield ERG system as recommended by the manufacturers instructions.
Scotopic ERG recordings were taken in dark adapted animals following stimulation with increasing intensities of green (FIGS. 20A, 20C, 20E, 20G) light (to activate M-cones and rods) or UV (FIGS. 20B, 20D, 20F, 20H) light (to activate S-cones and rods). […] ERG amplitude at different intensities of green (FIGS. 20C, 20E) or UV (FIGS. 20D, 20F) are shown for the A wave (FIGS. 20C, 20D) and B wave (FIGS. 20E, 20F).

[7] = tested on: SRSF1 nuclear localisation in MDA-MB231 cells; assay: SRSF1 localisation by immunofluorescence
[8] = Half life in human liver microsomes
Description: We also tested the half life of these compounds when exposed to human liver microsomes.

[9] = tested on: neovascular AMD; conditions: 0.5 mg monthly, at one year; cited from earlier work

Molecule: CN(C)CCN1CCN(c2ccc(C(F)(F)F)cc2NC(=O)c2ccc(-c3ccncc3)o2)CC1 [SPHINX7]
- toxic doses [1]: greater than 10 μM

Molecule: Cc1ccc(C(=O)Nc2cc(C(F)(F)F)ccc2N2CCOCC2)o1 [SPHINX]
- eye drop concentration of maximum effect [2]: 10 µg/mL

Molecule: Cc1ccc(Nc2nccc(N(C)c3ccc4c(C)n(C)nc4c3)n2)cc1S(N)(=O)=O [pazopanib]
- detection in retina ([3]; 4 hrs): could not
- detection in vitreous (bottom chamber) ([3]; 4 hrs): could not
- detection in vitreous (bottom chamber) ([3]; 24 hours): detected

Molecule: O=C(Nc1cc(C(F)(F)F)ccc1N1CCN(Cc2ccncc2)CC1)c1ccc(-c2ccncc2)o1 [Compound 14]
- solubility in water of salt forms [4]: more freely soluble in water

Molecule: O=C(Nc1cc(C(F)(F)F)ccc1N1CCN(Cc2ccccn2)CC1)c1ccc(-c2ccncc2)o1 [Compound 12]
- SRSF1 localisation [5]: inhibited cellular localisation
- solubility in water of salt forms [4]: more freely soluble in water
- effect on scotopic or photopic activity [6]: No effect
- SRSF1 localisation [7]: inhibited cellular localisation
- Half life [8]: 1.025 h

Molecule: O=C(Nc1cc(C(F)(F)F)ccc1N1CCN(Cc2cccnc2)CC1)c1ccc(-c2ccncc2)o1 [Compound 13]
- solubility in water of salt forms [4]: more freely soluble in water

Molecule: O=C(Nc1cc(C(F)(F)F)ccc1N1CCCCC1)c1ccncc1 [SRPIN340]
- eye drop concentration of maximum effect [2]: 10 µg/mL

B1: Lucentis: novel humanized anti-VEGF antibody fragment (antibody, chains of the INN, looked up, V domains shown)
VH: EVQLVESGGGLVQPGGSLRLSCAASGYDFTHYGMNWVRQAPGKGLEWVGWINTYTGEPTYAADFKRRFTFSLDTSKSTAYLQMNSLRAEDTAVYYCAKYPYYYGTSHWYFDVWGQGTLVTVSS
VL: DIQLTQSPSSLSASVGDRVTITCSASQDISNYLNWYQQKPGKAPKVLIYFTSSLHSGVPSRFSGSGSGTDFTLTISSLQPEDFATYYCQQYSTVPWTFGQGTKVEIK
modifications: Fab
notes: novel humanized anti-VEGF antibody fragment
- patients who maintained visual acuity (loss of <15 letters) [9]: approximately 95%
- patients with improved vision (gain of ≧15 letters) [9]: ≤ 40%
